The source made the active and inactive calls. The rule behind the calls is not given here.
Legend:
[1] = biological target: Serum amyloid P-component (Homo sapiens) (UniProt P02743); assay: Inhibition of calcium dependent [125I]serum amyloid P-component (unknown origin) binding to immobilized Neisseria meningitidis at 2 mM incubated for 2 hrs by fluorescence/electron microscopy relative to control
[2] = biological target: Serum amyloid P-component (Homo sapiens) (UniProt P02743); assay: Inhibition of calcium dependent [125I]serum amyloid P-component (unknown origin) binding to immobilized Neisseria meningitidis at 200 uM incubated for 2 hrs by fluorescence/electron microscopy relative to control
[3] = biological target: Serum amyloid P-component (Homo sapiens) (UniProt P02743); assay: Inhibition of calcium dependent [125I]serum amyloid P-component (unknown origin) binding to immobilized Neisseria meningitidis at 20 uM incubated for 2 hrs by fluorescence/electron microscopy relative to control
[4] = biological target: Serum amyloid P-component (Homo sapiens) (UniProt P02743); assay: Inhibition of calcium dependent [125I]serum amyloid P-component (unknown origin) binding to immobilized Neisseria meningitidis at 2 uM incubated for 2 hrs by fluorescence/electron microscopy relative to control
[5] = biological target: Serum amyloid P-component (Homo sapiens) (UniProt P02743); assay: Inhibition of calcium dependent [125I]serum amyloid P-component (unknown origin) binding to immobilized Neisseria meningitidis at 200 nM incubated for 2 hrs by fluorescence/electron microscopy relative to control
[6] = biological target: Serum amyloid P-component (Homo sapiens) (UniProt P02743); assay: Inhibition of calcium dependent [125I]serum amyloid P-component (unknown origin) binding to immobilized chicken erythrocyte native long chromatin at 2 mM incubated for 2 hrs by gamma counting relative to control
[7] = biological target: Serum amyloid P-component (Homo sapiens) (UniProt P02743); assay: Inhibition of calcium dependent [125I]serum amyloid P-component (unknown origin) binding to immobilized chicken erythrocyte native long chromatin at 200 uM incubated for 2 hrs by gamma counting relative to control
[8] = biological target: Serum amyloid P-component (Homo sapiens) (UniProt P02743); assay: Inhibition of calcium dependent [125I]serum amyloid P-component (unknown origin) binding to immobilized chicken erythrocyte native long chromatin at 20 uM incubated for 2 hrs by gamma counting relative to control
[9] = biological target: Serum amyloid P-component (Homo sapiens) (UniProt P02743); assay: Inhibition of calcium dependent [125I]serum amyloid P-component (unknown origin) binding to immobilized chicken erythrocyte native long chromatin at 2 uM incubated for 2 hrs by gamma counting relative to control
[10] = biological target: Serum amyloid P-component (Homo sapiens) (UniProt P02743); assay: Inhibition of calcium dependent [125I]serum amyloid P-component (unknown origin) binding to immobilized chicken erythrocyte native long chromatin at 200 nM incubated for 2 hrs by gamma counting relative to control
[11] = biological target: Serum amyloid P-component (Homo sapiens) (UniProt P02743); assay: Inhibition of calcium dependent [125I]serum amyloid P-component (unknown origin) binding to immobilized influenza virus A/Shanghai/24/90 at 2 mM incubated for 2 hrs by fluorescence/electron microscopy relative to control
[12] = biological target: Serum amyloid P-component (Homo sapiens) (UniProt P02743); assay: Inhibition of calcium dependent [125I]serum amyloid P-component (unknown origin) binding to immobilized influenza virus A/Shanghai/24/90 at 200 uM incubated for 2 hrs by fluorescence/electron microscopy relative to control
[13] = biological target: Serum amyloid P-component (Homo sapiens) (UniProt P02743); assay: Inhibition of calcium dependent [125I]serum amyloid P-component (unknown origin) binding to immobilized influenza virus A/Shanghai/24/90 at 20 uM incubated for 2 hrs by fluorescence/electron microscopy relative to control
[14] = biological target: Serum amyloid P-component (Homo sapiens) (UniProt P02743); assay: Inhibition of calcium dependent [125I]serum amyloid P-component (unknown origin) binding to immobilized influenza virus A/Shanghai/24/90 at 2 uM incubated for 2 hrs by fluorescence/electron microscopy relative to control
[15] = biological target: Serum amyloid P-component (Homo sapiens) (UniProt P02743); assay: Inhibition of calcium dependent [125I]serum amyloid P-component (unknown origin) binding to immobilized influenza virus A/Shanghai/24/90 at 200 nM incubated for 2 hrs by fluorescence/electron microscopy relative to control
[16] = biological target: Serum amyloid P-component (Homo sapiens) (UniProt P02743); details: 10 mM
Description: Inhibition of calcium dependent [125I]serum amyloid P-component (unknown origin) binding to immobilized Neisseria meningitidis at 10 mM incubated for 2 hrs by fluorescence/electron microscopy relative to control

Homo sapiens [17] = assay: Reduction of serum amyloid P-component in amyloidosis patient at 10 mg, sc bid for 3 months; assay type: functional
Homo sapiens [18] = assay: Reduction of serum amyloid P-component in amyloidosis patient at 15 mg, sc bid for 2 months; assay type: functional
[19] = biological target: Serum amyloid P-component (Homo sapiens) (UniProt P02743); assay: Inhibition of serum amyloid P-component (unknown origin) binding to immobilized amyloid beta 1 to 42 fibrils at 500 umol/L in presence of calcium by surface plasma resonance
[20] = biological target: Serum amyloid P-component (Homo sapiens) (UniProt P02743); assay: Inhibition of serum amyloid P-component (unknown origin) binding to immobilized amyloid beta 1 to 42 fibrils at 100 umol/L pre-incubated before calcium addition by surface plasma resonance
[21] = biological target: Serum amyloid P-component (Homo sapiens) (UniProt P02743); assay: Inhibition of serum amyloid P-component (unknown origin) binding to immobilized amyloid beta 1 to 42 fibrils in presence of EDTA followed by re-exposure to SAP and calcium addition and re-exposure to compound at 50 umol/L by surface plasma resonance

Serum amyloid P-component (Homo sapiens), sequence (P02743 whole entry): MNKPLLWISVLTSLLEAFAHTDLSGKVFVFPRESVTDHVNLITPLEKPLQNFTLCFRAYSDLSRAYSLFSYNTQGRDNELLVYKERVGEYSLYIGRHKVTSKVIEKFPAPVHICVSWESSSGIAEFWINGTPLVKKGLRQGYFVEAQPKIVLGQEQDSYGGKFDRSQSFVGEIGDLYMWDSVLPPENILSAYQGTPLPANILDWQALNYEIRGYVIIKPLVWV

Compound: C[N+](C)(C)CCOP(=O)([O-])O
- inhibition [1]: 24%
- inhibition [2]: 3%
- inhibition [3]: 4%
- inhibition [4]: 5%
- inhibition [5]: 0%
- inhibition [6]: 19%
- inhibition [7]: 3%
- inhibition [8]: 0%
- inhibition [9]: 0%
- inhibition [10]: 2%
- inhibition [11]: 3%
- inhibition [12]: 5%
- inhibition [13]: 5%
- inhibition [14]: 2%
- inhibition [15]: 0%

Compound: O=C(O)[C@H]1CCCN1C(=O)COc1ccc(OCC(=O)N2CCC[C@@H]2C(=O)O)cc1
- inhibition [1]: 100%
- inhibition [2]: 65%
- inhibition [3]: 74%
- inhibition [4]: 65%
- inhibition [5]: 0%
- inhibition [6]: 91%
- inhibition [7]: 75%
- inhibition [8]: 56%
- inhibition [9]: 36%
- inhibition [10]: 1%
- inhibition [11]: 87%
- inhibition [12]: 84%
- inhibition [13]: 82%
- inhibition [14]: 77%
- inhibition [15]: 3%

Compound: Cc1c(OCC(=O)N2CCC[C@@H]2C(=O)O)cccc1OCC(=O)N1CCC[C@@H]1C(=O)O
- inhibition [1]: 100%
- inhibition [2]: 100%
- inhibition [3]: 93%
- inhibition [4]: 64%
- inhibition [5]: 1%
- inhibition [6]: 98%
- inhibition [7]: 95%
- inhibition [8]: 65%
- inhibition [9]: 22%
- inhibition [10]: 0%
- inhibition [11]: 85%
- inhibition [12]: 81%
- inhibition [13]: 81%
- inhibition [14]: 65%
- inhibition [15]: 24%

Compound: O=C(O)[C@H]1CCCN1C(=O)Cc1cc(O)c(CC(=O)N2CCC[C@@H]2C(=O)O)cc1O
- inhibition [1]: 100%
- inhibition [2]: 100%
- inhibition [3]: 95%
- inhibition [4]: 76%
- inhibition [5]: 1%
- inhibition [6]: 97%
- inhibition [7]: 88%
- inhibition [8]: 78%
- inhibition [9]: 45%
- inhibition [10]: 0%
- inhibition [11]: 89%
- inhibition [12]: 89%
- inhibition [13]: 80%
- inhibition [14]: 57%
- inhibition [15]: 24%

Compound: O=C(O)[C@H]1CCCN1C(=O)[C@H]1CC[C@@H](C(=O)N2CCC[C@@H]2C(=O)O)CC1
- inhibition [1]: 100%
- inhibition [2]: 100%
- inhibition [3]: 93%
- inhibition [4]: 73%
- inhibition [5]: 31%
- inhibition [6]: 100%
- inhibition [7]: 94%
- inhibition [8]: 67%
- inhibition [9]: 35%
- inhibition [10]: 1%
- inhibition [11]: 92%
- inhibition [12]: 89%
- inhibition [13]: 83%
- inhibition [14]: 76%
- inhibition [15]: 0%

Compound: O=C(O)CN(CCN(CC(=O)O)CC(=O)O)CC(=O)O
- inhibition [16]: 100%

Compound: NCCOP(=O)(O)O
- inhibition [1]: 95%
- inhibition [2]: 41%
- inhibition [3]: 32%
- inhibition [4]: 18%
- inhibition [5]: 7%
- inhibition [6]: 94%
- inhibition [7]: 59%
- inhibition [8]: 36%
- inhibition [9]: 9%
- inhibition [10]: 3%
- inhibition [11]: 69%
- inhibition [12]: 51%
- inhibition [13]: 42%
- inhibition [14]: 8%
- inhibition [15]: 1%

Compound: O=C(O)[C@H]1CCCN1C(=O)COc1cccc2c(OCC(=O)N3CCC[C@@H]3C(=O)O)cccc12
- inhibition [1]: 100%
- inhibition [2]: 100%
- inhibition [3]: 81%
- inhibition [4]: 72%
- inhibition [5]: 30%
- inhibition [6]: 96%
- inhibition [7]: 82%
- inhibition [8]: 74%
- inhibition [9]: 51%
- inhibition [10]: 12%
- inhibition [11]: 80%
- inhibition [12]: 76%
- inhibition [13]: 64%
- inhibition [14]: 51%
- inhibition [15]: 23%

Compound: O=C(O)[C@H]1CCCN1C(=O)Cc1cccc(CC(=O)N2CCC[C@@H]2C(=O)O)c1
- inhibition [1]: 100%
- inhibition [2]: 100%
- inhibition [3]: 92%
- inhibition [4]: 64%
- inhibition [5]: 28%
- inhibition [6]: 98%
- inhibition [7]: 94%
- inhibition [8]: 56%
- inhibition [9]: 18%
- inhibition [10]: 0%
- inhibition [11]: 82%
- inhibition [12]: 77%
- inhibition [13]: 73%
- inhibition [14]: 68%
- inhibition [15]: 25%

Compound: COc1cccc(OCC(=O)N2CCC[C@@H]2C(=O)O)c1OCC(=O)N1CCC[C@@H]1C(=O)O
- inhibition [1]: 100%
- inhibition [2]: 93%
- inhibition [3]: 92%
- inhibition [4]: 74%
- inhibition [5]: 19%
- inhibition [6]: 100%
- inhibition [7]: 96%
- inhibition [8]: 75%
- inhibition [10]: 11%
- inhibition [11]: 89%
- inhibition [12]: 77%
- inhibition [13]: 62%
- inhibition [14]: 52%
- inhibition [15]: 16%

Compound: O=C(O)[C@H]1CCCN1C(=O)Cc1ccc(CC(=O)N2CCC[C@@H]2C(=O)O)cc1
- inhibition [1]: 100%
- inhibition [2]: 100%
- inhibition [3]: 73%
- inhibition [4]: 64%
- inhibition [5]: 7%
- inhibition [6]: 92%
- inhibition [7]: 66%
- inhibition [8]: 39%
- inhibition [9]: 19%
- inhibition [10]: 4%
- inhibition [11]: 89%
- inhibition [12]: 89%
- inhibition [13]: 85%
- inhibition [14]: 65%
- inhibition [15]: 37%

Compound: O=C(O)[C@H]1CCCN1C(=O)Cc1ccc(CC(=O)N2CCC[C@@H]2C(=O)O)c2ccccc12
- inhibition [1]: 100%
- inhibition [2]: 100%
- inhibition [3]: 89%
- inhibition [4]: 69%
- inhibition [5]: 13%
- inhibition [6]: 100%
- inhibition [7]: 96%
- inhibition [8]: 77%
- inhibition [9]: 35%
- inhibition [10]: 15%
- inhibition [11]: 98%
- inhibition [12]: 94%
- inhibition [13]: 95%
- inhibition [14]: 64%
- inhibition [15]: 4%

Compound: O=C(O)[C@H]1CCCN1C(=O)CCCCC(=O)N1CCC[C@@H]1C(=O)O
- inhibition [1]: 100%
- inhibition [2]: 79%
- inhibition [3]: 74%
- inhibition [4]: 61%
- inhibition [5]: 5%
- inhibition [6]: 93%
- inhibition [7]: 87%
- inhibition [8]: 69%
- inhibition [9]: 29%
- inhibition [10]: 1%
- inhibition [11]: 98%
- inhibition [12]: 96%
- inhibition [13]: 90%
- inhibition [14]: 81%
- inhibition [15]: 36%
- inhibition (INH) (Homo sapiens [17]): 95%
- inhibition (INH) (Homo sapiens [18]): 95%

Compound: O=C(O)[C@H]1CCCN1C(=O)COc1ccccc1OCC(=O)N1CCC[C@@H]1C(=O)O
- inhibition [1]: 100%
- inhibition [2]: 100%
- inhibition [3]: 87%
- inhibition [4]: 77%
- inhibition [5]: 18%
- inhibition [6]: 96%
- inhibition [7]: 89%
- inhibition [8]: 77%
- inhibition [9]: 34%
- inhibition [10]: 7%
- inhibition [11]: 94%
- inhibition [12]: 93%
- inhibition [13]: 88%
- inhibition [14]: 68%
- inhibition [15]: 44%

Compound: C[C@H](CS)C(=O)N1CCC[C@@H]1C(=O)O
- inhibition [19]: Active
- inhibition [20]: Active
- inhibition [3]: 50%
- inhibition [4]: 42%
- inhibition [5]: 3%
- inhibition [12]: 51%
- inhibition [13]: 40%
- inhibition [14]: 30%
- inhibition [15]: 12%
- inhibition [21]: Active
